Square brackets hold non-standard residues; d marks the D form. Peptide text beside a SMILES is read from it.
System: tracheal mucus velocity (TMV) in sheep
Assay: CFTRinh-172-induced slowing of tracheal mucus velocity (TMV) in sheep
Format: in vivo
Conditions: for average TMV response between 5-12h: mean±se, 3 sheep/group, saline 50±0.5%
Method: All procedures used were approved by the Mount Sinai Medical Center Animal Research Committee. The sheep were conscious and intubated for these studies. All instrumentation was performed under local anesthesia. After topical anesthesia of the nasal passages with 2% lidocaine solution, the sheep were nasally intubated, with an endotracheal tube […] in diameter (Mallinckrodt Med Inc., St. Louis, Mo.) shortened by 6 cm. The cuff of the tube was placed just below the vocal cords (verified by fluoroscopy) to allow for maximal exposure of the tracheal surface area. The inspired air was warmed and humidified using a Bennett Humidifier (Puritan-Bennett, Lenexa, Kans.). To minimize possible impairment of TMV caused by the inflated cuff, the endotracheal tube cuff remained deflated throughout the study except for the period of drug delivery.
TMV was measured in vivo by a roentgenographic technique. Between 8 and 10 radiopaque Teflon/bismuth trioxide disks, 1-mm diameter, 0.8-mm thick and 1.5-2 mg in weight, were insufflated onto the trachea. A modified suction catheter connected to a source of continuous compressed air at a flow of 3-4 L/min was used to introduce the particles via the endotracheal tube. The catheter remained within the endotracheal tube only during particle delivery, so that no contact with the tracheal surface is made. The cephalad-axial velocities of the individual disks were recorded on videotape from a portable image intensifier unit. Individual disk velocities were calculated by measuring the distance traveled by each disk during a 1-min observation period. For each run, the mean value of all individual disk velocities was calculated. A collar containing radiopaque reference markers of known length was worn by the sheep, and used as a standard to correct for magnification effects inherent in the fluoroscopy unit.
Aerosols were generated using an Airlife medication nebulizer. To control aerosol delivery a dosimetry system activated by a piston respirator (Harvard Apparatus Respiratory Pump, Holliston, Mass.) was used. The nebulizer was connected to a T-piece with one end attached to the respiratory pump and the other to the animal's tracheal tube. Nebulized aerosols were delivered directly into the trachea only during inspiration at a frequency of 20 breaths/min and at a tidal volume of 500 mL.
Ten (10) mg of CFTRinh-172 was dissolved in 0.3 mL of DMSO. The solution was vortexed and then 2.7 mL of ethanol was added bringing the final nebulized solution of CFTRinh to 10 mg/3 mL. […]
After a 10 minute period on the humidifier, a baseline TMV was obtained Immediately following the baseline, the sheep were challenged with an aerosol of 10 mg of CFTRinh. TMV was measured hourly for 4h. […] TMV was then measured from 5-12h following treatment. […]

Structure (SMILES): CC[C@H](C)[C@H](NC(=O)[C@@H]1CCCN1C(=O)[C@H](CC(C)C)NC(=O)[C@@H](C)NC(=O)[C@@H](C)N)C(=O)N1CCC[C@H]1C(=O)N[C@@H](CC(C)C)C(=O)N[C@@H](CC(=O)O)C(=O)N[C@@H](CCC(N)=O)C(=O)N[C@H](C(=O)N[C@H](C)C(=O)N[C@H](C)C(N)=O)[C@@H](C)O [SEQ ID NO:128, aaLPIPLDQTaa] (H-[dA][dA]LPIPLDQT[dA][dA]-NH2)
- average TMV response between 5-12h (1 mg/kg nebulized 4 h after 10 mg CFTRinh): 73.7±0.7%
- average TMV response between 5-12h (2 mg/kg nebulized 4 h after 10 mg CFTRinh): 88.4±0.6%
- average TMV response between 5-12h (4 mg/kg nebulized 4 h after 10 mg CFTRinh): 103.0±0.6%
- reversal of CFTRinh-induced slowing of TMV (reversal dose dependent, FIGS. 8A-8C): can reverse CFTRinh-induced slowing of TMV
